Results published in ChEMBL document CHEMBL3112424, “Discovery and optimization of pyrimidone indoline amide PI3Kβ inhibitors for the treatment of phosphatase and tensin homologue (PTEN)-deficient cancers” (J Med Chem, 2014).
Converted amounts (≈) assume the structure as drawn.

What was measured:
Cytochrome P450 3A4 = Cytochrome P450 3A4 (Homo sapiens, UniProt P08684); assay: Inhibition of recombinant human CYP3A4
[1] = Metabolic stability in human liver microsomes at 5 uM after 20 mins
[2] = Metabolic stability in mouse liver microsomes at 5 uM after 20 mins
[3] = Apparent permeability in human Caco2 cells at 5 uM after 20 mins; conditions: Caco-2
[4] = Solubility of the compound in phosphate buffer at pH 7.4 by HPLC analysis; conditions: phosphate buffer
[5] = molecular target: T1, Phosphatidylinositol 4,5-bisphosphate 3-kinase catalytic subunit beta isoform (Homo sapiens, UniProt P42338); assay: Inhibition of PI3Kbeta-mediated Akt phosphorylation at S473 in PTEN-deficient human PC3 cells after 0.5 to 2 hrs by Immunoblotting assay; type: cell-based, PC-3
[6] = molecular target: Phosphatidylinositol 4,5-bisphosphate 3-kinase catalytic subunit gamma isoform (Homo sapiens, UniProt P48736); assay: Inhibition of C-terminal ploy-His-tagged human PI3Kgamma expressed in baculovirus-infected sf9 cells using PI(4,5)P2 as substrate after 15 mins by HTRF assay
[7] = molecular target: T2, Phosphatidylinositol 4,5-bisphosphate 3-kinase catalytic subunit delta isoform (Homo sapiens, UniProt O00329); assay: Inhibition of N-terminal ploy-His-tagged human PI3Kdelta expressed in baculovirus-infected sf9 cells using PI(4,5)P2 as substrate after 15 mins by HTRF assay
T2 sequence (O00329 whole entry): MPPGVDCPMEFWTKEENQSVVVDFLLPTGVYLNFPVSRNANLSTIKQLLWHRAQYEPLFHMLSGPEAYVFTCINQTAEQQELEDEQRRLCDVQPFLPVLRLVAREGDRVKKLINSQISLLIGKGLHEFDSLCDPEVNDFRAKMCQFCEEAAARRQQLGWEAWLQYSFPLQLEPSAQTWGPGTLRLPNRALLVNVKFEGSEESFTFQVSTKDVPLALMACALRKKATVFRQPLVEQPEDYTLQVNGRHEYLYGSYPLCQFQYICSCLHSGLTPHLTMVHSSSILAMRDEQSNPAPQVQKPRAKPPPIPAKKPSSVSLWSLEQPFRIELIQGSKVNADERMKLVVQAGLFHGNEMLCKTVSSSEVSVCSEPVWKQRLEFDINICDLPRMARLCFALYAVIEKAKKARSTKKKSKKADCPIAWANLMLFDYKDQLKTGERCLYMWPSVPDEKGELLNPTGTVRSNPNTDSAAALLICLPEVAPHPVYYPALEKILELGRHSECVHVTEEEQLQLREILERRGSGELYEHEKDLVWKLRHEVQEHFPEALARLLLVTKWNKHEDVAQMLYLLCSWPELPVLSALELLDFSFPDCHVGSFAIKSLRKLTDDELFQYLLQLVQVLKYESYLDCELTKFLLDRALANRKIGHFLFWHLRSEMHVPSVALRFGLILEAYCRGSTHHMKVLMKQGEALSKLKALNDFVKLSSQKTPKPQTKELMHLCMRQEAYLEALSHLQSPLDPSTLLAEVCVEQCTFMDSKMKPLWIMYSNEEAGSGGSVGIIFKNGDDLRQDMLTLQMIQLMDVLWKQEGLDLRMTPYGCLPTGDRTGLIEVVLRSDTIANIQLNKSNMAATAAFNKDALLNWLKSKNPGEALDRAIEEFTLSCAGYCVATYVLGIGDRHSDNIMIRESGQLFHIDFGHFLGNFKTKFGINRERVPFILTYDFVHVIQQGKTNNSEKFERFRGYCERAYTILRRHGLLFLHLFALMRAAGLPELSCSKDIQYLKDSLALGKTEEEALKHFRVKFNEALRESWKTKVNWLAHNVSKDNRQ

[8] = molecular target: T1, Phosphatidylinositol 4,5-bisphosphate 3-kinase catalytic subunit beta isoform; assay: Inhibition of N-terminal ploy-His-tagged human PI3Kbeta expressed in baculovirus-infected sf21 cells using PI(4,5)P2 as substrate after 15 mins by HTRF assay
[9] = molecular target: Phosphatidylinositol 4,5-bisphosphate 3-kinase catalytic subunit alpha isoform (Homo sapiens, UniProt P42336); assay: Inhibition of N-terminal ploy-His-tagged human PI3Kalpha expressed in baculovirus-infected sf9 cells using PI(4,5)P2 as substrate after 15 mins by HTRF assay
Chain of Phosphatidylinositol 4,5-bisphosphate 3-kinase catalytic subunit alpha isoform (P42336 whole entry, canonical isoform): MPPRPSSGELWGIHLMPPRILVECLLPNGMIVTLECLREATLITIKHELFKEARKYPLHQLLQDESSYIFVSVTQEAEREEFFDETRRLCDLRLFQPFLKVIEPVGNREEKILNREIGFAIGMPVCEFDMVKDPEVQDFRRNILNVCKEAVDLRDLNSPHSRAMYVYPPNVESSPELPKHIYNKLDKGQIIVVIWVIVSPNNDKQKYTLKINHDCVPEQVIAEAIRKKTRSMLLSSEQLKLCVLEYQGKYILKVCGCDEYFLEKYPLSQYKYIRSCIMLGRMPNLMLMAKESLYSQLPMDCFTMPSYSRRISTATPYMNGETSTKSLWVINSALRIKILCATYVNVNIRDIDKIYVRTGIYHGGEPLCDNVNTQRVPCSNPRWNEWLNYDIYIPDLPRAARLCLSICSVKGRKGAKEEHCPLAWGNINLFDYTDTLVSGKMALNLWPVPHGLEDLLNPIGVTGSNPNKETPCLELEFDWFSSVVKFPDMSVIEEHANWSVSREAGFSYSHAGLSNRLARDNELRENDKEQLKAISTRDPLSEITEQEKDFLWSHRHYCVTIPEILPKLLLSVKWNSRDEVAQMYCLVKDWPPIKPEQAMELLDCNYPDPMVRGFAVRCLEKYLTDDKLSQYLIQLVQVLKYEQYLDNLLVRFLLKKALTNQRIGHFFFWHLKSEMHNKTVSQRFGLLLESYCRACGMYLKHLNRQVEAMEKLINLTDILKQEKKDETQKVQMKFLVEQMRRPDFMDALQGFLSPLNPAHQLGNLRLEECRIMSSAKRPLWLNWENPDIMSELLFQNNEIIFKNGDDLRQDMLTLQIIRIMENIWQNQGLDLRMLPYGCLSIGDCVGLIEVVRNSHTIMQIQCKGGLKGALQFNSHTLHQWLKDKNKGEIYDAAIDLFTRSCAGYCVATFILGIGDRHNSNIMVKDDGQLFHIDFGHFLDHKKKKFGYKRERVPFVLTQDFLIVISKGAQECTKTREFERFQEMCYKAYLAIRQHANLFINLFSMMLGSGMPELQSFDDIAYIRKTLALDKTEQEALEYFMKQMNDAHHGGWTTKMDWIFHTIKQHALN

Chain of Phosphatidylinositol 4,5-bisphosphate 3-kinase catalytic subunit gamma isoform (P48736 whole entry, canonical isoform): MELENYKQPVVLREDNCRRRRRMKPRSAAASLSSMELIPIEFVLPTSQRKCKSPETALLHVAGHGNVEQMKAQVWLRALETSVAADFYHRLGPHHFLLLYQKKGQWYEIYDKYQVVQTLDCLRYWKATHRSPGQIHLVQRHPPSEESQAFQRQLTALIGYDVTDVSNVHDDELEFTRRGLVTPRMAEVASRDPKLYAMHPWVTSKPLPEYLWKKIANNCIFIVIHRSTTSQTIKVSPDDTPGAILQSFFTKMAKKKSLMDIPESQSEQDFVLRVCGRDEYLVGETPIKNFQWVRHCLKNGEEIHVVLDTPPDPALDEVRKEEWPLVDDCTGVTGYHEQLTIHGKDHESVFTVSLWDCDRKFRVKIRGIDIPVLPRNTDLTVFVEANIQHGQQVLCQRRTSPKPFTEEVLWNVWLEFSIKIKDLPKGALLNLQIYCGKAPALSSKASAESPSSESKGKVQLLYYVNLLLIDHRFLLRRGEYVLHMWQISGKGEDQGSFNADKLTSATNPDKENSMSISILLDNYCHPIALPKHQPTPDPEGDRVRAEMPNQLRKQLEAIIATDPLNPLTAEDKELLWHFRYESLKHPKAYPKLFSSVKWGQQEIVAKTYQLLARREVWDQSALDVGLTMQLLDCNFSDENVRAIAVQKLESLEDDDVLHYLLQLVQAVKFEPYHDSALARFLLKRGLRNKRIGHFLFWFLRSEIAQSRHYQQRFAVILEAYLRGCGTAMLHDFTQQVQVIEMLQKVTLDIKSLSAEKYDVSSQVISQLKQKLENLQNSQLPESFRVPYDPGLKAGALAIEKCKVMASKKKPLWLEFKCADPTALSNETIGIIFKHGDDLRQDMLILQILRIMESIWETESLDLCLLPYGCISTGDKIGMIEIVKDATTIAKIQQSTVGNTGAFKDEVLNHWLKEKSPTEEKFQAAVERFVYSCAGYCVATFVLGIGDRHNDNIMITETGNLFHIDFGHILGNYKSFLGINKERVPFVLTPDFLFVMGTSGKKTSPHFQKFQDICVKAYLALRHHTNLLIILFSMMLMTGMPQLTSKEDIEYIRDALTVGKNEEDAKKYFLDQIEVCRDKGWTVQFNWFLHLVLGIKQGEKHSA
Chain of Cytochrome P450 3A4 (P08684 whole entry): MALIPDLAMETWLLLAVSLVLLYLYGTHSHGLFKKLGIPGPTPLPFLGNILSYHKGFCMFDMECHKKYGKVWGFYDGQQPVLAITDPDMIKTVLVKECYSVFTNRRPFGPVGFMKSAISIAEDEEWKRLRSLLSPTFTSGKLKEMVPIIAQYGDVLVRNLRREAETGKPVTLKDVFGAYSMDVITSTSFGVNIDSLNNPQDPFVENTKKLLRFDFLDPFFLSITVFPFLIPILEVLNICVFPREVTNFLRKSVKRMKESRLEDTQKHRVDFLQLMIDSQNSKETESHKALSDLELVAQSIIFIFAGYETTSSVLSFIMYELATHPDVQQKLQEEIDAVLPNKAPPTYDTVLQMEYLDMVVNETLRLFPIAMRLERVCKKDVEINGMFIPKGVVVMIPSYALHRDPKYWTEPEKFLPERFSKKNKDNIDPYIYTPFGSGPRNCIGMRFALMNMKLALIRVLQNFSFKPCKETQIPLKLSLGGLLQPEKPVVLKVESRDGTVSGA
T1 sequence (P42338 whole entry, canonical isoform): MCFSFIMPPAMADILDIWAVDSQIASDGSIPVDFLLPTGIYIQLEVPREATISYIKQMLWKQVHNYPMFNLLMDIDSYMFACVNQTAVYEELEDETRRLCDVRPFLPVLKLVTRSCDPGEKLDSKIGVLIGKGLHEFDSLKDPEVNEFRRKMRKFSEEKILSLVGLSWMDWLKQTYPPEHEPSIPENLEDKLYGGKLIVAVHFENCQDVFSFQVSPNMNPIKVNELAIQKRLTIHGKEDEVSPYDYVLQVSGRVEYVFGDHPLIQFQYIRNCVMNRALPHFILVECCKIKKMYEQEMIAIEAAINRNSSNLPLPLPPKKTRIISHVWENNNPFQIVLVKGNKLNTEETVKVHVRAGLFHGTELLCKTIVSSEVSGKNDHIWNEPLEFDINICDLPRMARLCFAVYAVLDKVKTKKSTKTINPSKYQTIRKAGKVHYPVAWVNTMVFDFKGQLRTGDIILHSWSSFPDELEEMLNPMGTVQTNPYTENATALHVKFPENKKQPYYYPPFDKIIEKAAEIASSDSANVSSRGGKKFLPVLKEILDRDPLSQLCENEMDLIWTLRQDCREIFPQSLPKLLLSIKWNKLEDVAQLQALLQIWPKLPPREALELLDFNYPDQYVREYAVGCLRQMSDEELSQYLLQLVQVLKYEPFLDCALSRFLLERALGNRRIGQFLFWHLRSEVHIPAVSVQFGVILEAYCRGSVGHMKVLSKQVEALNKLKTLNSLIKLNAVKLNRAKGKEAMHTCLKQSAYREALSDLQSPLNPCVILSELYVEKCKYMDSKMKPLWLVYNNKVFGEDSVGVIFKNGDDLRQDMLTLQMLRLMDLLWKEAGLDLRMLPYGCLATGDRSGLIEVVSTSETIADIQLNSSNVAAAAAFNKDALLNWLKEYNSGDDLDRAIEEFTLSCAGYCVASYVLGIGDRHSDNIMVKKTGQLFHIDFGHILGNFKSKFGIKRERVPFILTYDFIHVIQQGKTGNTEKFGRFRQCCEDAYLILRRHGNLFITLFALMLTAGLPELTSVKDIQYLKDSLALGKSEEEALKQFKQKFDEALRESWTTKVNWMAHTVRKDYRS

Compound | IC50 (Cytochrome P450 3A4) [µM] | remaining at 20 min, 5 µM ([1]; liver microsomes) [%] | remaining at 20 min, 5 µM ([2]; liver microsomes) [%] | Papp at 20 min, 5 µM [3] [nm/s] | solubility [4] [µM] | IC50 [5] [µM] | IC50 [6] [µM] | IC50 [7] [µM] | IC50 [8] [µM] | IC50 [9] [µM] | remaining at 20 min, 5 µM ([1]; microsomes) [%] | remaining at 20 min, 5 µM ([2]; microsomes) [%]
C[C@@H]1Cc2ccccc2N1C(=O)Cc1nc(N2CCOCC2)cc(=O)[nH]1 | 40 | 43 | 52 | 51 | 2500 (≈ 885 µg/mL) | 0.012 | 3.31 | 0.006 | 0.006 | – | – | –
O=C(Cc1nc(N2CCOCC2)cc(=O)[nH]1)N1CCc2ccccc21 | 40 | 12 | 21 | 59 | 12 (≈ 4.08 µg/mL) | 0.015 | 10 | 0.028 | 0.004 | 0.46 | – | –
O=C(Cc1nc(N2CCOCC2)cc(=O)[nH]1)N1CCc2cc(F)ccc21 | 40 | 18 | 14 | 30 | 31 (≈ 11.1 µg/mL) | 0.007 | 1.59 | 0.017 | 0.004 | 0.426 | – | –
CC1Cc2ccccc2N1C(=O)Cc1nc(N2CCOCC2)cc(=O)[nH]1 (racemic) | – | – | – | – | 2750 (≈ 976 µg/mL) | 0.006 | 9.15 | 0.036 | 0.004 | – | – | –
Cn1c(Cc2nc(N3CCOCC3)cc(=O)[nH]2)nc2ccccc21 | – | – | – | – | – | – | 10 | – | – | – | – | –
O=C(Cc1nc(N2CCOCC2)cc(=O)[nH]1)N1CCc2c(Cl)cccc21 | 40 | 18 | 27 | 88 | 5 (≈ 1.87 µg/mL) | 0.003 | 1.13 | 0.021 | 0.001 | 0.086 | – | –
O=C(Cc1nc(N2CCOCC2)cc(=O)[nH]1)N1CCc2c(-c3ccccn3)cccc21 | 11 | 36 | 40 | 42 | 110 (≈ 45.9 µg/mL) | 0.066 | 8.97 | 0.106 | 0.098 | 2.38 | – | –
O=C(Cc1nc(N2CCOCC2)cc(=O)[nH]1)N1CCc2c(F)cccc21 | – | – | – | – | – | – | 6.22 | 0.122 | – | 2.45 | 19 | 9
CC1(C)CN(C(=O)Cc2nc(N3CCOCC3)cc(=O)[nH]2)c2ccccc21 | 40 | 83 | 87 | 40 | 46 (≈ 16.9 µg/mL) | 0.028 | – | 0.278 | 0.017 | 5.42 | – | –
CC1(C)Cc2ccccc2N1C(=O)Cc1nc(N2CCOCC2)cc(=O)[nH]1 | – | – | – | – | 46 (≈ 16.9 µg/mL) | 0.078 | – | 0.58 | 0.102 | – | – | –
CN1CCN(c2cccc3c2CCN3C(=O)Cc2nc(N3CCOCC3)cc(=O)[nH]2)CC1 | – | – | – | – | 1500 (≈ 656 µg/mL) | 0.167 | 10 | 0.022 | 0.407 | 0.96 | – | –
O=C(Cc1nc(N2CCOCC2)cc(=O)[nH]1)N1CCc2c(Br)cccc21 | 40 | 24 | 22 | 42 | 2 (≈ 0.839 µg/mL) | 0.001 | 3.98 | 0.055 | 0.006 | 0.085 | – | –
O=C(Cc1nc(N2CCOCC2)cc(=O)[nH]1)N1CCc2c(-c3ccccc3)cccc21 | 40 | 40 | 25 | 71 | – | 0.024 | 1.53 | 0.018 | 0.008 | 0.217 | – | –
CC1CN(C(=O)Cc2nc(N3CCOCC3)cc(=O)[nH]2)c2ccccc21 (racemic) | 40 | 47 | 40 | 75 | 3 (≈ 1.06 µg/mL) | 0.013 | 10 | 0.087 | 0.022 | 2.26 | – | –
O=C(Cc1nc(N2CCOCC2)cc(=O)[nH]1)N1CCc2cc(Cl)ccc21 | 40 | 34 | 36 | 14 | 3 (≈ 1.12 µg/mL) | 0.124 | 10 | 4.13 | 0.079 | 2.02 | – | –
CN1CCN(Cc2cccc3c2CCN3C(=O)Cc2nc(N3CCOCC3)cc(=O)[nH]2)CC1 | – | – | – | – | 4420 (≈ 2000 µg/mL) | 0.272 | – | 0.002 | 0.332 | 0.66 | – | –
Cn1c(CC(=O)N2CCc3ccccc32)nc(N2CCOCC2)cc1=O | – | 14 | 37 | 83 | 36 (≈ 12.8 µg/mL) | 0.02 | – | 0.278 | 0.048 | 4.32 | – | –
COc1cccc2c1CCN2C(=O)Cc1nc(N2CCOCC2)cc(=O)[nH]1 | 40 | 0 | 70 | 6 | 5 (≈ 1.85 µg/mL) | 0.06 | – | 0.648 | 0.041 | 2.42 | – | –
Cc1cccc2c1CCN2C(=O)Cc1nc(N2CCOCC2)cc(=O)[nH]1 | – | 32 | 60 | 74 | 3 (≈ 1.06 µg/mL) | 0.003 | 1.78 | 0.024 | 0.005 | 0.138 | – | –
